# Reference: the NIST ThermoML archive (doi:10.1021/je060271a)
# Numbers after ± are expanded uncertainties.
# Conditions: 343.15 K, Liquid, Vibrating tube method
structure (smiles),measurement,setting,value
CCCCCCCC(=O)OCC(COC(=O)CCCCCCC)(COC(=O)CCCCCCC)COC(=O)CCCCCCC [pentaerythritol tetraoctanoate],mass density,665.9 kPa,926.5 ± 1.6 kg/m3
same,mass density,687.8 kPa,926.6 ± 1.1 kg/m3
same,mass density,706.6 kPa,926.4 ± 1.1 kg/m3
same,mass density,730 kPa,926.5 ± 1.1 kg/m3
same,mass density,755.6 kPa,926.6 ± 1.1 kg/m3
same,mass density,778.5 kPa,926.5 ± 1.1 kg/m3
same,mass density,802.8 kPa,926.6 ± 1.1 kg/m3
same,mass density,832.2 kPa,926.4 ± 1.1 kg/m3
same,mass density,862.6 kPa,926.6 ± 1.1 kg/m3
same,mass density,881.1 kPa,926.6 ± 1.1 kg/m3
same,mass density,902.3 kPa,926.7 ± 1.1 kg/m3
same,mass density,920.9 kPa,926.6 ± 1.1 kg/m3
same,mass density,940.4 kPa,926.6 ± 1.1 kg/m3
same,mass density,964.7 kPa,926.7 ± 1.1 kg/m3
same,mass density,985.7 kPa,926.6 ± 1.1 kg/m3
same,mass density,1011.4 kPa,926.8 ± 1.1 kg/m3
same,mass density,1034.9 kPa,926.7 ± 1.1 kg/m3
same,mass density,1063.7 kPa,926.8 ± 1.1 kg/m3
same,mass density,1088.9 kPa,926.8 ± 1.1 kg/m3
same,mass density,1119.9 kPa,926.8 ± 1.1 kg/m3
same,mass density,1147.2 kPa,926.8 ± 1.1 kg/m3
same,mass density,1182.1 kPa,926.7 ± 1.1 kg/m3
same,mass density,1218.2 kPa,926.8 ± 1.1 kg/m3
same,mass density,1249.3 kPa,926.9 ± 1.1 kg/m3
same,mass density,1282.5 kPa,926.8 ± 1.1 kg/m3
same,mass density,1323.6 kPa,927.1 ± 1.1 kg/m3
same,mass density,1359.7 kPa,927 ± 1.1 kg/m3
same,mass density,1406.5 kPa,926.9 ± 1.1 kg/m3
same,mass density,1447.6 kPa,927 ± 1.1 kg/m3
same,mass density,1490.5 kPa,927 ± 1.1 kg/m3
same,mass density,1543.8 kPa,927.1 ± 1.1 kg/m3
same,mass density,1590.8 kPa,927.1 ± 1.1 kg/m3
same,mass density,1650.5 kPa,927.1 ± 1.1 kg/m3
same,mass density,1702.4 kPa,927.2 ± 1.1 kg/m3
same,mass density,1763.5 kPa,927.2 ± 1.1 kg/m3
same,mass density,1794.1 kPa,927.3 ± 1.1 kg/m3
same,mass density,1881.2 kPa,927.4 ± 1.1 kg/m3
same,mass density,1905.6 kPa,927.4 ± 1.1 kg/m3
same,mass density,1913.3 kPa,927.3 ± 1.1 kg/m3
same,mass density,1919.7 kPa,927.4 ± 1.1 kg/m3
same,mass density,1926.3 kPa,927.3 ± 1.1 kg/m3
same,mass density,1934.1 kPa,927.4 ± 1.1 kg/m3
same,mass density,1941 kPa,927.5 ± 1.1 kg/m3
same,mass density,1952.7 kPa,927.5 ± 1.1 kg/m3
same,mass density,1970.2 kPa,927.3 ± 1.1 kg/m3
same,mass density,2032.8 kPa,927.4 ± 1.1 kg/m3
same,mass density,2121.2 kPa,927.7 ± 1.1 kg/m3
same,mass density,2203.7 kPa,927.5 ± 1.1 kg/m3
same,mass density,2331.4 kPa,927.7 ± 1.1 kg/m3
same,mass density,2366.8 kPa,927.7 ± 1.1 kg/m3
same,mass density,2379.6 kPa,927.9 ± 1.1 kg/m3
same,mass density,2393.5 kPa,927.8 ± 1.1 kg/m3
same,mass density,2403.9 kPa,927.9 ± 1.1 kg/m3
same,mass density,2415.5 kPa,927.8 ± 1.1 kg/m3
same,mass density,2424.6 kPa,927.8 ± 1.1 kg/m3
same,mass density,2434.6 kPa,927.8 ± 1.1 kg/m3
same,mass density,2446.8 kPa,927.8 ± 1.1 kg/m3
same,mass density,2457.7 kPa,927.7 ± 1.1 kg/m3
same,mass density,2468.6 kPa,927.9 ± 1.1 kg/m3
same,mass density,2480.2 kPa,927.8 ± 1.1 kg/m3
same,mass density,2493.9 kPa,927.9 ± 1.6 kg/m3
same,mass density,2505.4 kPa,927.9 ± 1.1 kg/m3
same,mass density,2519.4 kPa,927.9 ± 1.1 kg/m3
same,mass density,2531.1 kPa,927.9 ± 1.1 kg/m3
same,mass density,2543 kPa,927.9 ± 1.1 kg/m3
same,mass density,2555.2 kPa,927.8 ± 1.1 kg/m3
same,mass density,2569.2 kPa,927.9 ± 1.1 kg/m3
same,mass density,2581.3 kPa,928 ± 1.1 kg/m3
same,mass density,2593.5 kPa,927.9 ± 1.1 kg/m3
same,mass density,2608.2 kPa,928 ± 1.1 kg/m3
same,mass density,2620.9 kPa,927.9 ± 1.1 kg/m3
same,mass density,2633.4 kPa,928.1 ± 1.1 kg/m3
same,mass density,2646.4 kPa,927.9 ± 1.1 kg/m3
same,mass density,2659 kPa,928 ± 1.1 kg/m3
